The values that follow come from patent US20200046746A1, “ANTI-AGING COMPOSITIONS AND METHODS FOR USING SAME” (Prescient Pharma LLC, priority 2015, published 2020).

Where “and” joins values, the source holds several entries; their conditions need not be identical. Equal entries are not always repeated.

Test [1] deals with normal human colon fibroblast cell line CCD 841 CoN (CRL-1790, ATCC). As to the kind of experiment: Senescence beta-galactosidase staining of aged normal human fibroblasts (Example 1). The settings on record: lithium carbonate 0.15 μM and/or glycyrrhizic acid 0.25 mM; for effect on beta-galactosidase staining of the fibroblasts in comparison with non-treated controls or monotherapy / % green stained (average green area with and without background subtraction) / % green staining (green stained area of total original area) / visible positive beta-Galactosidase staining: 48 hours; for % green staining: per flask, 48 hours treatment, higher values = more aged cells; for % green stained (average green area with and without background subtraction) / % green staining (green stained area of total original area): per image, substance assigned through Table 3 (Area = Image #); for visible positive beta-Galactosidase staining: visual, light microscope 100× magnification. The format is cell-based. The procedure: Aging-associated beta-galactosidase is widely used as a biomarker of senescence. Here we investigated senescence-associated-beta-galactosidase activity of human colon fibroblast cells by visual assessment.
In this Example, the effect of treatment with lithium and glycyrrhizic acid separately, and as a fixed combination, was evaluated on normal human colon fibroblast cell line CCD 841 CoN (CRL-1790, ATCC).
Group 4 (flasks 10-12, control), the medium was changed to fresh compete EMEM medium without drugs as controls.
FIGS. 1-4 show pictures of the staining results for each of the groups, respectively.
Digital pictures showing the staining results for each of the 12 flasks were then independently examined and scored for percentage of area of green (positive) staining based on pixels, with and without background subtraction.
Higher values reflect more intensive green staining which corresponds to more aged cells.

Test [2] has as its system wild-type N2 Bristol strain of C. elegans. Description: C. elegans longevity study (Example 4). In kind it is in vivo. The settings on record: for longevity and survival (longevity effect): wild type C. elegans, lithium carbonate 0.15 or 15 μM. The procedure: In this fourth Example, the effect of treatment with lithium and Glycyrrhizic acid separately, and as a fixed combination, was further evaluated on the wild-type N2 Bristol strain of C. elegans. Worm stocks were maintained on nematode growth medium (NGM) dishes containing 10 μg/mL cholesterol (Cat. No. C8667; Sigma-Aldrich, Saint Louis, Mo., USA). Dishes were seeded with OP50 Escherichia coli as a food source. Twelve polystyrene petri dishes (35 mm diameter) were prepared by filling with NGM agar containing […] cholesterol, and 25 μM 5-Fluoro-2′-deoxyuridine to suppress reproduction (FUDR; Cat. No. F0503; Sigma-Aldrich, Saint Louis, Mo., USA). The dishes were seeded with OP50 Escherichia coli as a food source. Duplicate dishes were used for each group. The treatment drug was dissolved in deionized water, and added to the dishes for the groups as explained below: […] Group #5: Glycyrrhizic acid in concentration of 0.25 mM. Group #6: untreated (control). NGM-agar treatment plates containing cholesterol (10 μg/mL) and 25 μM 5-Fluoro-2′-deoxyuridine (FUDR; Cat. No. F0503; Sigma-Aldrich, Saint Louis, Mo., USA) to suppress reproduction. […] The survival data for the various groups are also depicted in FIG. 17.

Setting [3] is: lithium carbonate 0.15 μM, in the combination plus glycyrrhizic acid 0.25 mM.
Setting [4] is: lithium carbonate 15 μM, in the combination plus glycyrrhizic acid 0.25 mM.

Regarding `CC1(C)[C@@H](O[C@@H]2O[C@@H](C(=O)O)[C@H](O)[C@@H](O)[C@@H]2O[C@H]2O[C@@H](C(=O)O)[C@H](O)[C@@H](O)[C@@H]2O)CC[C@]2(C)[C@@H]1CC[C@@]1(C)[C@H]2C(=O)C=C2[C@H]3C[C@@](C)(C(=O)O)CC[C@@]3(C)CC[C@@]21C` [G acid, (3β,20β)-20-carboxy-11-oxo-30-norolean-12-en-3-yl 2-O-β-D-glucopyranuronosyl-α-D-glucopyranosiduronic acid], in test [1], the “effect on beta-galactosidase staining of the fibroblasts in comparison with non-treated controls or monotherapy” value is recorded as “did not appear to have significant effect”; the “% green staining” value was 9.1% and 10.03% and 6.91%; the “% green stained (average green area with and without background subtraction)” value was 6.908% and 9.104% and 10.03%; the “% green staining (green stained area of total original area)” value is 6.91% and 9.1% and 10.03%. In addition, the “visible positive beta-Galactosidase staining” value in test [1] is recorded as “stained positively”. In test [2] (glycyrrhizic acid 0.25 mM), the “Age in days at % mortality 25%” value is recorded as 14 days, the “Age in days at % mortality 50%” value was 16 days, the “Age in days at % mortality 75%” value was 18 days and the “Age in days at % mortality 90%” value is given as 19 days. In test [2] (glycyrrhizic acid 0.25 mM), the “Age in days at % mortality 100%” value is on record as 20 days; the “Restricted mean Days” value stood at 16.06 days; the “longevity and survival (longevity effect)” value is listed as “not observed”.

Consider `O=C([O-])[O-].[Li+].[Li+]` [Li, lithium carbonate], for which, in test [1], the “effect on beta-galactosidase staining of the fibroblasts in comparison with non-treated controls or monotherapy” value is given as “did not appear to have significant effect”; the “% green staining” value is 6.25% and 2.83% and 5.24%; the “% green stained (average green area with and without background subtraction)” value is 2.828% and 6.253% and 5.243%; the “% green staining (green stained area of total original area)” value was 2.83% and 6.25% and 5.24%. Moreover, the “visible positive beta-Galactosidase staining” value in test [1] is given as “stained positively”. Besides, in test [2] (lithium carbonate 0.15 μM), the “Age in days at % mortality 100%” value came out at 19 days. In test [2] (setting [3]), the “Age in days at % mortality 25%” value came to 13 days, the “Age in days at % mortality 50%” value is 15 days, the “Age in days at % mortality 75%” value is recorded as 16 days and the “Age in days at % mortality 90%” value is 18 days. Moreover, the “Restricted mean Days” value in test [2] (setting [3]) came to 14.88 days. Moreover, in test [2] (lithium carbonate 15 μM), the “Age in days at % mortality 100%” value is recorded as 19 days. Moreover, in test [2] (setting [4]), the “Age in days at % mortality 25%” value was 14 days, the “Age in days at % mortality 50%” value amounted to 15 days, the “Age in days at % mortality 75%” value came to 16 days and the “Age in days at % mortality 90%” value is reported as 18 days. The “Restricted mean Days” value in test [2] (setting [4]) was 14.56 days. In addition, in test [2] (glycyrrhizic acid 0.25 mM), the “longevity and survival (longevity effect)” value was “not observed”.
